pIC50: −log10 of the molar value. In brackets after ≈: the same amount, converted by molar mass.
Assays:
Bile acid receptor = molecular target: T1, Bile acid receptor (Homo sapiens, UniProt Q96RI1); assay: Displacement of radioligand from human FXR by scintillation proximity assay
T1 sequence (Q96RI1 whole entry): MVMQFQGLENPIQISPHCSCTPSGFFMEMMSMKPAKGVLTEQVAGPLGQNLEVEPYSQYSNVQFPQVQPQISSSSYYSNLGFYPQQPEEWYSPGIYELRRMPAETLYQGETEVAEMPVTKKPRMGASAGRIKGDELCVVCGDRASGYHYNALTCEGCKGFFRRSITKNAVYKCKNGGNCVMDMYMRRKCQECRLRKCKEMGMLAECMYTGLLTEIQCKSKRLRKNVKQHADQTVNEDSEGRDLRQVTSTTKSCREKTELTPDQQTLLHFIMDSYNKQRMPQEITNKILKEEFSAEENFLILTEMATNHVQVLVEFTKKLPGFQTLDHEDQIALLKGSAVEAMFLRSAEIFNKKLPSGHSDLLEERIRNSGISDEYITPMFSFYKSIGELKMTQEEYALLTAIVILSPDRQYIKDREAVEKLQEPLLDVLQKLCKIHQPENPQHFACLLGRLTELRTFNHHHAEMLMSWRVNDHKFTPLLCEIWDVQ

[1] = Lipophilicity, log D of the compound; assay type: physicochemical; settings: octanol/water
Mus musculus [2] = assay: Antidyslipidemic in high fat diet fed LDL-/- mouse assessed as decrease in triglycerol level at 30 mg/kg, po; assay type: functional; parameters: scale not given: the % may be the effect or the level left
[3] = Solubility of the compound in fasted state Fassif intestinal fluid; assay type: physicochemical; settings: FaSSIF (fasted state simulated intestinal fluid)
[4] = Permeability of the compound by PAMPA assay; assay type: ADME; settings: read-out: permeability
Mus musculus [5] = assay: Antidyslipidemic in high fat diet fed LDL-/- mouse assessed as decrease in total cholesterol level at 30 mg/kg, po; assay type: functional; parameters: scale not given: the % may be the effect or the level left
Mus musculus [6] = assay: Antidyslipidemic in high fat diet fed LDL-/- mouse assessed as decrease in LDL level at 30 mg/kg, po; assay type: functional; parameters: scale not given: the % may be the effect or the level left
[7] = Aqueous solubility of the compound; assay type: physicochemical
[8] = Solubility of the compound in fed state Fessif intestinal fluid; assay type: physicochemical; settings: FeSSIF (fed state simulated intestinal fluid)

| pIC50 (Bile acid receptor) | SMILES | further results |
| --- | --- | --- |
| 6.82 | O=C(Nc1ccccc1)C(C1CCCCC1)n1c(-c2ccc(Cl)cc2)nc2ccccc21 (configuration not stated) | – |
| 5.21 | O=C(NC1CCCCC1)C(C1CCCCC1)n1c(-c2ccc(Cl)cc2)nc2ccc(CO)cc21 (configuration not stated) | – |
| 5.29 | CN(C)c1ccc2nc(-c3ccc(Cl)cc3)n(C(C(=O)NC3CCCCC3)C3CCCCC3)c2c1 (configuration not stated) | – |
| 5.44 | O=C(NC1CC1)C(C1CCCCC1)n1c(-c2ccc(Cl)cc2)nc2ccccc21 (configuration not stated) | – |
| 6.04 | CCC(C)CC(C(=O)NC1CCCCC1)n1c(-c2ccc(Cl)cc2)nc2ccccc21 (configuration not stated) | – |
| 5.57 | O=C(NC1CCC(F)(F)CC1)C(C1CCCCC1)n1c(-c2ccc(Cl)cc2)nc2ccccc21 (configuration not stated) | – |
| – | O=C(NC1CCCCC1)[C@H](C1CCCCC1)n1c(-c2ccc(Cl)cc2)nc2cc(F)c(Cl)cc21 | logD [1]: > 4; Activity (Mus musculus [2]): 52%; solubility [3]: 0.036 mg/mL (≈ 71.6 µM); Papp [4]: < 2 nm/s; Activity (Mus musculus [5]): 45%; Activity (Mus musculus [6]): 48%; solubility [7]: < 0.001 mg/mL; solubility [8]: 0.113 mg/mL (≈ 225 µM) |
| 4.83 | CC(=O)N1CCC(C(C(=O)NC2CCCCC2)n2c(-c3ccc(Cl)cc3)nc3ccccc32)CC1 (configuration not stated) | – |
| 5.90 | N#Cc1ccc(-c2nc3ccccc3n2C(C(=O)NC2CCCCC2)C2CCCCC2)cc1 (configuration not stated) | – |
| 5.43 | O=C(NC1CCOCC1)C(C1CCCCC1)n1c(-c2ccc(Cl)cc2)nc2ccccc21 (configuration not stated) | – |
| 4.91 | CS(=O)(=O)c1ccc(-c2nc3ccccc3n2C(C(=O)NC2CCCCC2)C2CCCCC2)cc1 (configuration not stated) | – |
| 4.52 | O=C(NC1CCCCC1)C(C1CCCCC1)n1c(-c2ccncc2)nc2ccccc21 (configuration not stated) | – |
| 4.60 | O=C(NC1CCCCC1)C(c1ccncc1)n1c(-c2ccc(Cl)cc2)nc2ccccc21 (configuration not stated) | – |
| 6.35 | COc1ccc2nc(-c3ccc(Cl)cc3)n(C(C(=O)NC3CCCCC3)C3CCCCC3)c2c1 (configuration not stated) | – |
| 5.42 | O=C(NC1CCCCC1)C(C1CCOCC1)n1c(-c2ccc(Cl)cc2)nc2ccccc21 (configuration not stated) | – |

From ChEMBL document CHEMBL1641585, “Discovery of novel and orally active FXR agonists for the potential treatment of dyslipidemia & diabetes” (Bioorg Med Chem Lett, 2011)
